Assays:
[1] = Safety and tolerability: adverse events, laboratory, ECG, physical examination; type: in vivo, human
[2] = 28‐day toxicity study in rats; cited from earlier work
[3] = s.c. single dose 120 mg (n = 5)

O=C(CN[C@@H]1CCNC1)N1CCC[C@H]1B(O)O [dutogliptin]
Induration, related: subjects with at least 1 AE ([1]; s.c. multidose 90 mg (n = 5)): 4 (80%)
Local AEs, related: subjects with at least 1 AE ([1]; s.c. multidose 90 mg (n = 5)): 5 (100%)
Other local AEs, related: subjects with at least 1 AE ([1]; s.c. multidose 90 mg (n = 5)): 0
Other systemic AEs (dizziness and nausea), related: subjects with at least 1 AE ([1]; s.c. multidose 90 mg (n = 5)): 2 (40%)
Pain with touching, related: subjects with at least 1 AE ([1]; s.c. multidose 90 mg (n = 5)): 2 (40%)
Pain without touching, related: subjects with at least 1 AE ([1]; s.c. multidose 90 mg (n = 5)): 1 (20%)
Swelling, related: subjects with at least 1 AE ([1]; s.c. multidose 90 mg (n = 5)): 1 (20%)
Systemic AEs, related: subjects with at least 1 AE ([1]; s.c. multidose 90 mg (n = 5)): 4 (80%)
All AEs, related: subjects with at least 1 AE ([1]; s.c. multidose 120 mg (n = 5)): 5 (100%)
Erythema, related: subjects with at least 1 AE ([1]; s.c. multidose 120 mg (n = 5)): 5 (100%)
Fatigue, related: subjects with at least 1 AE ([1]; s.c. multidose 120 mg (n = 5)): 0
Headache, related: subjects with at least 1 AE ([1]; s.c. multidose 120 mg (n = 5)): 0
Hematoma, related: subjects with at least 1 AE ([1]; s.c. multidose 120 mg (n = 5)): 0
Induration, related: subjects with at least 1 AE ([1]; s.c. multidose 120 mg (n = 5)): 3 (60%)
Local AEs, related: subjects with at least 1 AE ([1]; s.c. multidose 120 mg (n = 5)): 5 (100%)
Other local AEs, related: subjects with at least 1 AE ([1]; s.c. multidose 120 mg (n = 5)): 0
Other systemic AEs, related: subjects with at least 1 AE ([1]; s.c. multidose 120 mg (n = 5)): 0
Pain with touching, related: subjects with at least 1 AE ([1]; s.c. multidose 120 mg (n = 5)): 2 (40%)
Pain without touching, related: subjects with at least 1 AE ([1]; s.c. multidose 120 mg (n = 5)): 2 (40%)
Swelling, related: subjects with at least 1 AE ([1]; s.c. multidose 120 mg (n = 5)): 0
Systemic AEs, related: subjects with at least 1 AE ([1]; s.c. multidose 120 mg (n = 5)): 0
All AEs, related: subjects with at least 1 AE ([1]; s.c. single dose 30 mg (n = 5)): 5 (100%)
Erythema, related: subjects with at least 1 AE ([1]; s.c. single dose 30 mg (n = 5)): 5 (100%)
Fatigue, related: subjects with at least 1 AE ([1]; s.c. single dose 30 mg (n = 5)): 0
Headache, related: subjects with at least 1 AE ([1]; s.c. single dose 30 mg (n = 5)): 0
Hematoma, related: subjects with at least 1 AE ([1]; s.c. single dose 30 mg (n = 5)): 0
Induration, related: subjects with at least 1 AE ([1]; s.c. single dose 30 mg (n = 5)): 0
Local AEs, related: subjects with at least 1 AE ([1]; s.c. single dose 30 mg (n = 5)): 5 (100%)
Other local AEs, related: subjects with at least 1 AE ([1]; s.c. single dose 30 mg (n = 5)): 0
Other systemic AEs, related: subjects with at least 1 AE ([1]; s.c. single dose 30 mg (n = 5)): 0
Pain with touching, related: subjects with at least 1 AE ([1]; s.c. single dose 30 mg (n = 5)): 1 (20%)
Pain without touching, related: subjects with at least 1 AE ([1]; s.c. single dose 30 mg (n = 5)): 0
Swelling, related: subjects with at least 1 AE ([1]; s.c. single dose 30 mg (n = 5)): 0
Systemic AEs, related: subjects with at least 1 AE ([1]; s.c. single dose 30 mg (n = 5)): 0
All AEs, related: subjects with at least 1 AE ([1]; s.c. single dose 60 mg (n = 5)): 5 (100%)
Erythema, related: subjects with at least 1 AE ([1]; s.c. single dose 60 mg (n = 5)): 5 (100%)
Fatigue, related: subjects with at least 1 AE ([1]; s.c. single dose 60 mg (n = 5)): 0
Headache, related: subjects with at least 1 AE ([1]; s.c. single dose 60 mg (n = 5)): 0
Hematoma, related: subjects with at least 1 AE ([1]; s.c. single dose 60 mg (n = 5)): 0
Induration, related: subjects with at least 1 AE ([1]; s.c. single dose 60 mg (n = 5)): 1 (20%)
Local AEs, related: subjects with at least 1 AE ([1]; s.c. single dose 60 mg (n = 5)): 5 (100%)
Other local AEs, related: subjects with at least 1 AE ([1]; s.c. single dose 60 mg (n = 5)): 0
Other systemic AEs, related: subjects with at least 1 AE ([1]; s.c. single dose 60 mg (n = 5)): 0
Pain with touching, related: subjects with at least 1 AE ([1]; s.c. single dose 60 mg (n = 5)): 0
Pain without touching, related: subjects with at least 1 AE ([1]; s.c. single dose 60 mg (n = 5)): 0
Swelling, related: subjects with at least 1 AE ([1]; s.c. single dose 60 mg (n = 5)): 0
Systemic AEs, related: subjects with at least 1 AE ([1]; s.c. single dose 60 mg (n = 5)): 0
All AEs, related: subjects with at least 1 AE ([1]; s.c. single dose 90 mg (n = 5)): 5 (100%)
Erythema, related: subjects with at least 1 AE ([1]; s.c. single dose 90 mg (n = 5)): 5 (100%)
Fatigue, related: subjects with at least 1 AE ([1]; s.c. single dose 90 mg (n = 5)): 0
Headache, related: subjects with at least 1 AE ([1]; s.c. single dose 90 mg (n = 5)): 0
Hematoma, related: subjects with at least 1 AE ([1]; s.c. single dose 90 mg (n = 5)): 1 (20%)
Induration, related: subjects with at least 1 AE ([1]; s.c. single dose 90 mg (n = 5)): 0
Local AEs, related: subjects with at least 1 AE ([1]; s.c. single dose 90 mg (n = 5)): 5 (100%)
Other local AEs, related: subjects with at least 1 AE ([1]; s.c. single dose 90 mg (n = 5)): 0
Other systemic AEs, related: subjects with at least 1 AE ([1]; s.c. single dose 90 mg (n = 5)): 0
Pain with touching, related: subjects with at least 1 AE ([1]; s.c. single dose 90 mg (n = 5)): 0
Pain without touching, related: subjects with at least 1 AE ([1]; s.c. single dose 90 mg (n = 5)): 0
Swelling, related: subjects with at least 1 AE ([1]; s.c. single dose 90 mg (n = 5)): 1 (20%)
Systemic AEs, related: subjects with at least 1 AE ([1]; s.c. single dose 90 mg (n = 5)): 0
All AEs, related: subjects with at least 1 AE [1, 3]: 5 (100%)
Erythema, related: subjects with at least 1 AE [1, 3]: 4 (80%)
Fatigue, related: subjects with at least 1 AE [1, 3]: 0
Headache, related: subjects with at least 1 AE [1, 3]: 1 (20%)
Hematoma, related: subjects with at least 1 AE [1, 3]: 1 (20%)
Induration, related: subjects with at least 1 AE [1, 3]: 2 (40%)
Local AEs, related: subjects with at least 1 AE [1, 3]: 4 (80%)
Other local AEs (burning sensation at the injection site), related: subjects with at least 1 AE [1, 3]: 1 (20%)
Other systemic AEs, related: subjects with at least 1 AE [1, 3]: 0
Pain with touching, related: subjects with at least 1 AE [1, 3]: 0
Pain without touching, related: subjects with at least 1 AE [1, 3]: 0
Swelling, related: subjects with at least 1 AE [1, 3]: 0
Systemic AEs, related: subjects with at least 1 AE [1, 3]: 1 (20%)
No observed adverse effects level [2]: 30 mg/kg

From PMC7163368 (British Journal of Clinical Pharmacology, 2020)
